These results are taken from publication PMC7587962, “Evaluation of Cytotoxicity and α-Glucosidase Inhibitory Activity of Amide and Polyamino-Derivatives of Lupane Triterpenoids” (Molecules, 2020).

For assay [1], the system named is pathogenic microorganisms. Description: Primary antimicrobial screening, five bacterial strains and two fungi. Also on record: dose or concentration left out as unconfirmed.
Protocol: The antifungal activity was determined against Candida albicans and Cryptococcus neoformans. […] Samples with inhibition value above 80% were classed as actives. Samples with inhibition values between 50 and 80% were classed as partial actives.
(§2) Samples were prepared in DMSO and water to a final testing concentration of 32 µg/mL, in 384-well, non-binding surface plate (NBS) for each bacterial/fungal strain, and in duplicate (n = 2) and keeping the final DMSO concentration to a maximum of 1% DMSO. All the sample-preparation was done using liquid handling robots.
All bacteria were cultured in cation-adjusted Mueller Hinton broth (CAMHB) at 37 °C overnight. A sample of each culture was then diluted 40-fold in fresh broth and incubated at 37 °C for 1.5–3 h. The resultant mid-log phase cultures were diluted (CFU/ ml measured by OD600), then added to each well of the compound containing plates, giving a cell density of 5 × 10^5 CFU/mL and a total volume of 50 µl. All the plates were covered and incubated at 37 °C for 18 h without shaking.
Inhibition of bacterial growth was determined measuring absorbance at 600 nm (OD600), using a Tecan M1000 Pro monochromator plate reader. The percentage of growth inhibition was calculated for each well, using negative control (media only) and positive control (bacteria without inhibitors) on the same plate as references. The significance of the inhibition values was determined by modified Z-scores, calculated using the median and MAD of the samples (no controls) on the same plate. Samples with inhibition value above 80% and Z-score above 2.5 for either replicate were classed as actives. […]
Fungi strains were cultured for 3 days on Yeast Extract-Peptone Dextrose (YPD) agar at 30 °C. A yeast suspension of 1 × 10^6 to 5 × 10^6 CFU/mL (as determined by OD530) was prepared from five colonies. […]
The absorbance was measured using a Biotek Synergy HTX plate reader. The percentage of growth inhibition was calculated for each well, using negative control (media only) and positive control (fungi without inhibitors) on the same plate. […]
Assay [2] concerns Cryptococcus neoformans. Description: Antifungal growth inhibition, C. neoformans. The settings on record: for inhibition at 32 µg/mL: Cryptococcus neoformans, ATCC208821, read-out: % Growth inhibition. Also on record: activity class in primary screening: dose or concentration left out as unconfirmed.
Protocol: (§3) The antifungal activity was determined against Candida albicans and Cryptococcus neoformans.
as §2
(§4) Fungi strains were cultured for 3 days on Yeast Extract-Peptone Dextrose (YPD) agar at 30 °C. A yeast suspension of 1 × 10^6 to 5 × 10^6 CFU/mL (as determined by OD530) was prepared from five colonies. The suspension was subsequently diluted and added to each well of the compound-containing plates giving a final cell density of fungi suspension of 2.5 × 10^3 CFU/mL and a total volume of 50 µl. All plates were covered and incubated at 35 °C for 24 h without shaking.
(§5) The absorbance was measured using a Biotek Synergy HTX plate reader. The percentage of growth inhibition was calculated for each well, using negative control (media only) and positive control (fungi without inhibitors) on the same plate. The significance of the inhibition values was determined by modified Z-scores, calculated using the median and MAD of the samples (no controls) on the same plate. Samples with an inhibition value above 80% and Z-score above 2.5 for either replicate (n = 2 on different plates) were classed as actives. Samples with inhibition values between 50% and 80% and a Z-score above 2.5 for either replicate were classed as partial actives.
In assay [3] the test system is 60 human tumor cell lines. Description: cells.
The test system of assay [4] is SR. Description: NCI-60 SRB screen: leukemia SR. Format: cell-based. The settings on record: Homo sapiens, 48 h, single dose 10 µM, read-out: Percentage Cell Growth.
Assay [5] has as its system Acinetobacter baumannii. Description: Antibacterial growth inhibition, A. baumannii. The settings on record: ATCC27853, A. baumannii Strain ATCC 27853. Format: cell-based.
Assay [6] has as its system Klebsiella pneumonia. Description: Antibacterial growth inhibition, K. pneumonia. To be noted: Klebsiella pneumoniae, ATCC700603, K. pneumonia Strain ATCC 700603. It is filed as cell-based.
Assay [7] relates to Escherichia coli. Description: Antibacterial growth inhibition, E. coli. The settings on record: ATCC25922, E. coli Strain ATCC 25922. Format: cell-based.
The test system of assay [8] is Candida albicans. Description: Antifungal growth inhibition, C. albicans. To be noted: ATCC90028, read-out: % Growth inhibition.
Protocol: as §3, §2, §4, §5
Assay [9] has as its system methicillin-resistant Staphylococcus aureus (MRSA). Description: Antibacterial growth inhibition, S. aureus. It is filed as cell-based. To be noted: for inhibition at 32 µg/mL: Staphylococcus aureus, ATCC 43300 / MRSA, S. aureus Strain ATCC 43300.
Assay [10] deals with Pseudomonas aeruginosa. Description: Antibacterial growth inhibition, P. aeruginosa. Format: cell-based. To be noted: P. aeruginosa Strain 19606.
The target in assay [11] is Yeast α-Glucosidase. Description: Yeast α-glucosidase activity assay. It is filed as biochemical, S. cerevisiae. To be noted: pH 6.8, 37 °C, p-nitrophenyl-α-D-glucopyranoside 1 mM; read-out: Yeast α-Glucosidase, IC50 ± SE. On the procedure: (§1) Taken together, these considerations prompted us to evaluate a series of lupanes with amide function or polyamine chain 11, 12, 16, 18, and 22–26 for α-glucosidase inhibition. Initially, they were screened against α-glucosidase of S. cerevisiae as an accessible and high-throughput model. Confirmatory experiments were performed on isolated rough endoplasmic reticulum vesicles from rat liver, which contain neutral α-glucosidases I and II in a membrane-bound form.
In a 96-well flat transparent plate, the 0.12 U/mL enzyme solution (EC 3.2.1.20, expressed in S. cerevisiae, Sigma #G0660, St. Louis, MO, USA) was incubated with test compounds in 67 mM PBS (pH 6.8) at 37 °C for 5 min. Then, p-nitrophenyl-α-D-glucopyranoside (Sigma #N1377, St. Louis, MO, USA) was added to 1 mM final concentration and an increase in absorbance was recorded for 15 min at 405 nm wavelength with Infinite M200 PRO microplate reader (Tecan, Austria). Test compounds were dissolved in DMSO and diluted to the desired concentration in 67 mM PBS (pH 6.8) supplemented with 0.01% Tween 80 to avoid aggregation. Final DMSO concentration was <0.25% in sample wells, and it was also introduced in control and blank wells. […] Due to the absence of normal distribution of data, a Mann–Whitney U-test was used to determine statistical significance versus enzyme control using GraphPad Prism 8.0.1.

In assay [12] the test system is Rat Liver ER Neutral α-Glucosidase. Description: Endoplasmic reticulum α-glucosidase activity assay. Format: biochemical.
Source text: as §1, with “Betulinic acid inhibits yeast α-glucosidase activity and interferes with N-linked glycan modifications to cell-surface intercellular adhesion molecule-1 (ICAM-1) in human lung carcinoma A549 cells in a similar manner to castanospermine, an inhibitor of endoplasmic reticulum α-glucosidases I and II [66]. […] Taken” for “Taken”
Endoplasmic reticulum was isolated from hepatocytes of decapitated male Sprague-Dawley rats, which were starved overnight and sacrificed the next morning. All experiments were approved by Volgograd regional ethic committee. The whole procedure was performed at 4 °C. In brief, a fresh tissue sample from an animal was washed twice with 10 mL of PBS to remove residual blood. The tissue was placed on a paper towel in order to absorb excess liquid and blood clots, if present. It was cut further into small pieces (1.5–2 cm) and washed once more. […] Homogenate was centrifuged at 1000× g for 10 min at 4 °C. After removal of the floating lipid layer by aspiration, supernatant was separated and centrifuged at 12,000× g for 15 min. at 4 °C. The supernatant fraction, which is the post mitochondrial fraction (PMF), was used for isolation of rough endoplasmic reticulum (RER) enriched microsomes by precipitation with 8 mM CaCl2 added dropwise. The final concentration of CaCl2 was 7 mM. Resulting sample was centrifuged at 8000 g for 10 min. at 4 °C. The supernatant was discarded, and the pellet was suspended in isotonic extraction buffer (0.3 mL of buffer for each g of original tissue). The suspension was homogenized completely to afford RER enriched microsomes. In a 96-well flat transparent plate 25 µL of the isolated RER microsomes were incubated with 50 µL of test compounds in 67 mM PBS (pH 6.8) at 37 °C for 10 min. Then, p-nitrophenyl-α-D-glucopyranoside (Sigma #N1377, St. Louis, MO, USA) was added to 1 mM final concentration and increase in absorbance was recorded for 42 min at 405 nm wavelength with Infinite M200 PRO microplate reader (Tecan, Austria). Concentration of RER microsomes was adjusted to achieve an increase in optical density of ~0.2 in control samples after 30 min. of incubation. Test compounds were prepared as described above for the yeast α-glucosidase assay.

Structures are written as SMILES. Where two headings read alike, the source gives them in different places. Where only a bound is given, the exact number is not on record here.

For `C=C(C)[C@@H]1CC[C@]2(C(=O)N3CCCNCC3)CC[C@]3(C)[C@H](CC[C@@H]4[C@@]5(C)CCC(=O)C(C)(C)[C@@H]5CC[C@]43C)[C@@H]12` [Compound 2, 28-(1,4-Diazepan-1-yl)-28-oxolup-20(29)-en-3-one], the “inhibition of growth of pathogenic microorganisms” value in assay [1] is “did not inhibit the growth”. Further, the inhibition at 32 µg/mL in assay [2] was -5.9%; in [5] it was 33.1%; in assay [6] it was 0.98%; in [7] it was 1.96%; in assay [8] it was 4.14%; in [9], 40.3%. Also, the inhibition at 32 µg/mL in assay [10] was found to be 8.34%. Moreover, the activity at 10 µM in assay [3] (read-out: Mean Growth, %) was 89.5%; in assay [3] (read-out: Range of Growth, %) it was 8.04 to 127%; in assay [4], 8.04%.

For `C=C(C)[C@@H]1CC[C@]2(C(=O)OC)CC[C@]3(C)[C@H](CC[C@@H]4[C@@]5(C)C/C(=C/NC(N)=O)C(=O)C(C)(C)[C@@H]5CC[C@]43C)[C@@H]12` [Compound 25], the concentration for half-maximal inhibition (IC50) in assay [11] was 53.3 ± 5.7 µM. Further, the “inhibition of growth of pathogenic microorganisms” value in assay [1] is “did not inhibit the growth”. Moreover, the inhibition at 32 µg/mL was -7.93% in assay [2]; 40.9% in assay [5]; 2.44% in assay [6]; -5.34% in assay [7]; 14% in [8]; 19.8% in assay [9]. In addition, the inhibition at 32 µg/mL in assay [10] is -8.92%. In addition, the activity at 10 µM was 91.7% in assay [3] (read-out: Mean Growth, %); 21.2 to 112% in assay [3] (read-out: Range of Growth, %); 21.2% in assay [4]. Besides, the “Rat Liver ER Neutral α-Glucosidase Inhibition, m ± SD” value in assay [12] (10 μM) is recorded as 8.76 ± 9.63%; in assay [12] (100 μM) it was 9.62 ± 6.94%.

For `C=C(C)[C@@H]1CC[C@]2(C=NCCCNCCCCN)CC[C@]3(C)[C@H](CC[C@@H]4[C@@]5(C)CCC(=O)C(C)(C)[C@@H]5CC[C@]43C)[C@@H]12` [Compound 22], the IC50 in assay [11] was more than 100 µM. Further, the activity at 10 µM in [3] (read-out: Mean Growth, %) is 102%; in assay [3] (read-out: Range of Growth, %), 80.5 to 123%. In addition, the results for the “Rat Liver ER Neutral α-Glucosidase Inhibition, m ± SD” value in assay [12] (10 μM) and in assay [12] (100 μM) were 31.42 ± 7.96 % and 58.52 ± 8.21 %, respectively.

Regarding `C=C(C)[C@@H]1CC[C@]2(C(=O)NCCNCCN)CC[C@]3(C)[C@H](CC[C@@H]4[C@@]5(C)CCC(=O)C(C)(C)[C@@H]5CC[C@]43C)[C@@H]12` [Compound 12], in [11], the half-maximal inhibitory concentration (IC50) was more than 100 µM. The “activity class in primary screening” value in assay [2] (C. neoformans, one concentration) is recorded as “partial activity”; in assay [9] (methicillin-resistant S. aureus, one concentration of 32 µg/mL), “partial activity”. Also, the inhibition at 32 µg/mL in assay [2] is 62.6%; in assay [5], 19.5%; in assay [6] it was 9.2%; in [7], -9.57%; in [8] it was 11.7%; in assay [9] it was 71.8%. Moreover, the inhibition at 32 µg/mL in [10] is 7.72%. Besides, the activity at 10 µM in [3] (read-out: Mean Growth, %) was 98.9%; in assay [3] (read-out: Range of Growth, %), 59.1 to 141%. Further, the “Rat Liver ER Neutral α-Glucosidase Inhibition, m ± SD” value in [12] (10 μM) turned out to be 10.21 ± 3.49%; in [12] (100 μM), 23.59 ± 1.34 %.

In the case of `C=C(C)[C@@H]1CC[C@]2(C(=O)NCCCNCCCN)CC[C@]3(C)[C@H](CC[C@@H]4[C@@]5(C)CCC(=O)C(C)(C)[C@@H]5CC[C@]43C)[C@@H]12` [Compound 16], the IC50 in assay [11] is more than 100 µM. For the same molecule, the activity at 10 µM in assay [3] (read-out: Mean Growth, %) is 101%; in [3] (read-out: Range of Growth, %), 59.3 to 141%. For the same molecule, the “Rat Liver ER Neutral α-Glucosidase Inhibition, m ± SD” value in assay [12] (10 μM) is reported as 9.05 ± 6.68%; in [12] (100 μM) it was 14.94 ± 6.31%.

With `C=C(C)[C@@H]1CC[C@]2(C(=O)OC)CC[C@]3(C)[C@H](CC[C@@H]4[C@@]5(C)C/C(=C/NC(N)=S)C(=O)C(C)(C)[C@@H]5CC[C@]43C)[C@@H]12` [Compound 26], the IC50 in assay [11] is more than 100 µM. Moreover, the “inhibition of growth of pathogenic microorganisms” value in assay [1] is recorded as “did not inhibit the growth”. For the same molecule, the inhibition at 32 µg/mL in [2] was -13%; in assay [5], 28.2%; in [6], -3.89%; in assay [7], -7.03%; in [8], 5.83%; in assay [9], 12.7%. Besides, in [10], the inhibition at 32 µg/mL is -4.64%. The activity at 10 µM in assay [3] (read-out: Mean Growth, %) was 90.5%; in assay [3] (read-out: Range of Growth, %), 60.9 to 126%. Moreover, the “Rat Liver ER Neutral α-Glucosidase Inhibition, m ± SD” value in [12] (10 μM) is 11.63 ± 9.09%; in [12] (100 μM) it was 26.60 ± 13.03%.

With `C=C(C)[C@@H]1CC[C@]2(C=NCCCNCCCCN)CC[C@]3(C)[C@H](CC[C@@H]4[C@@]5(C)CCCNC(C)(C)[C@@H]5CC[C@]43C)[C@@H]12` [Compound 24], the IC50 in assay [11] was more than 100 µM. Moreover, the activity at 10 µM in assay [3] (read-out: Mean Growth, %) is 93.6%; in [3] (read-out: Range of Growth, %), 21.7 to 132%; in assay [4] it was 21.7%. In addition, the “Rat Liver ER Neutral α-Glucosidase Inhibition, m ± SD” value was found to be 26.96 ± 2.33 % in assay [12] (10 μM) and 54.62 ± 15.38 % in [12] (100 μM).

As to `C=C(C)[C@@H]1CC[C@]2(CO)CC[C@]3(C)[C@H](CC[C@@H]4[C@@]5(C)CCCNC(C)(C)[C@@H]5CC[C@]43C)[C@@H]12` [Compound 23], the IC50 in [11] is more than 100 µM. Moreover, the figures for the “Rat Liver ER Neutral α-Glucosidase Inhibition, m ± SD” value in assay [12] (10 μM) and in [12] (100 μM) were −1.34 ± 2.22% and 5.85 ± 8.03%, respectively.

As for `C=C(C)[C@@H]1CC[C@]2(COCCCN)CC[C@]3(C)[C@H](CC[C@@H]4[C@@]5(C)CC[C@H](OCCCN)C(C)(C)[C@@H]5CC[C@]43C)[C@@H]12` [Compound 18], the half-maximal inhibitory concentration (IC50) in assay [11] worked out at 5.7 ± 1.09 µM. For the same molecule, the figures for the “Rat Liver ER Neutral α-Glucosidase Inhibition, m ± SD” value in assay [12] (10 μM) and in assay [12] (100 μM) were 56.64 ± 4.24 % and 36.51 ± 14.90 %, respectively.

One may read the inhibition as the drop in the measured response relative to a control, in per cent. For orientation: IC50 means the concentration that gives 50% inhibition.
